Values of other authors as cited in article PMC9088311, “Cyclic Thiosulfonates for Thiol-Mediated Uptake: Cascade Exchangers, Transporters, Inhibitors” (JACS Au, 2022).

System: lentivirus with D614G SC2 spike protein, A549 cells overexpressing ACE2 and TMPRSS2
Conditions: 50 μM; cited from earlier work

SMILES: O=S1(=O)C[C@H](O)[C@H](O)CS1 (stereo in doubt) [Compound 3, (4S,5R)-4,5-dihydroxy-1,2-dithiane-1,1-dioxide]
- inhibition of luciferase expression, thus SC2 lentivector entry: ≈ 60%
